Experimental data published in patent US20030166723A1, “Ige production inhibitors” (priority 2000, published 2003).
Like-named read-outs stand apart in the source and are kept apart here.

Key:
NC/Nga mice = assay: Disease score of NC/Nga mice (AD model), oral administration; type: in vivo, mouse
Text: As a model animal, NC/Nga mouse was used. The NC/Nga mouse is an inbred mouse established in 1957, which is originated from “[…]” mouse, a pet mouse. Long since, it has been known that this mouse is sensitive to X-rays and to ovalbumin-caused anaphylactic shocks. […] Such AD-like phenotype occurs in the ordinary environment but not in a SPF (specific pathogen-free) environment where neither microorganism nor parasite exists, so that the onset of the disease can be controlled. In this view, the mouse was used as a disease model of atopic dermatitis in carrying out the present invention As the model animal, 5-week-old male NC/Nga mice bred in SPF environment, presenting neither dermatitis-like feature nor hyperIgE syndrome were used. To these mice, GLA ethyl ester (degree of purification of 95.98%: manufactured by Idemitsu Material Co., Ltd.) was administered by a stomach tube method in a dosage of 50 mg/individual once every other day starting from 5-week-old to obtain a GLA-administered group composed of 6 animals. On the other hand, as a control, PBS (phosphate buffered saline) instead of GLA ethyl ester was likewise administered in a dosage of 50 μg/individual to obtain a control group composed of 6 animals. In each week from the onset of administration (5 weeks old) up to 19 weeks old, the disease scores of the above-mentioned mice were converted into points according to the method of Matsuda et al. (Int. Immunol., 9, 461-466, 1997). A concrete method is described below. The following 5 items from A to E were scored by a three point full mark scoring system of 0 (none), 1 (slightly aggravated), 2 (moderately aggravated), and 3 (considerably aggravated). In total, 15 points make a full score. […] B (erythema, bleeding); Bleeding from ears and face and erythema on the back of ears were scored. C (edema): Mainly, degree of swelling of ears was scored. D (abrasions, erosion): Abrasions around the face, on the back of ears, and at around the base of arm were scored. E (dryness): Degree of dry skin from the back to the face was scored. As the model animal, 5-week-old male NC/Nga mice bred in SPF environment, presenting neither dermatitis-like feature nor hyperIgE syndrome were used. The animals were divided into each group composed of 10 animals. For the GLA-administered group, GLA ethyl ester (degree of purification of 95.98%: manufactured by Idemitsu Material Co., Ltd.) was administered by a stomach tube method in a dosage of 0.1 mg/individual once every other day. Administration of GLA was performed by using, olive oil containing little essential fatty acid which was added to 0.1 mg of GLA ethyl ester to make 50 μl. For the control group, 50 μl of olive oil alone was likewise administered. The disease score of mice in these groups were calculated every week in the same manner as in Example 1 and total IgE amount in plasma was measured once every other week.

IgE = conditions: for total IgE amount in plasma compared with control group: stomach tube
Procedure: As the model animal, 5-week-old male NC/Nga mice bred in SPF environment, presenting neither dermatitis-like feature nor hyperIgE syndrome were used. To these mice, GLA ethyl ester (degree of purification of 95.98%: manufactured by Idemitsu Material Co., Ltd.) was administered by a stomach tube method in a dosage of 50 mg/individual once every other day starting from 5-week-old to obtain a GLA-administered group composed of 6 animals. On the other hand, as a control, PBS (phosphate buffered saline) instead of GLA ethyl ester was likewise administered in a dosage of 50 μg/individual to obtain a control group composed of 6 animals.
In addition, blood was collected from the above-mentioned mice at the time of starting the administration (5 weeks old), and at 7, 9, and 11 weeks old and was centrifuged at 1,500 rpm for 10 minutes to obtain plasma. Then, total IgE amount in the plasma was measured by a sandwich ELISA method. A concrete method thereof is described below.
Rat anti-murine IgE monoclonal antibody (manufactured by PharMingen Co.) diluted to […] with coating buffer (0.1 M NaHCO3, 0.5 M NaCl, pH 8.5) was added to each well of a plate (NUNC-IMMUNOPLATE, manufactured by NUNC Inc., A/S) in an amount of 50 μl, and left to stand at 4° C. overnight or at 37° C. for 3 hours, followed by washing the wells with PBS/Tween (PBS, 0.05% Tween-20, pH 7.5) 3 times.
To each well, 200 μl of blocking buffer (PBS containing 2% skimmed milk) was added and incubated at 37° C. for 3 hours, followed by washing the wells with PBS/Tween 3 times.
Then, the above-mentioned murine plasma was diluted 100 folds with dilution buffer (PBS, 2% skimmed milk, 0.25% SDS) to prepare a sample for measurement. Furthermore, murine IgE standard (manufactured by PharmMingen Co.) was diluted with dilution buffer to prepare a standard for measurement.
The samples for measurement and standard were added to each well in amounts of 50 μl/well and incubated at 37° C. for 3 hours, followed by washing the wells with PBS/Tween 3 times.
Biotinylated rat anti-murine IgE antibody (manufactured by PharmMingen Co.) diluted to 2 μg/ml with dilution buffer was added to each well in an amount of 50 μl and incubated at 37° C. for about 3 hours, followed by washing the wells with PBS/Tween 6 times.
Furthermore, alkaline phosphatase-labeled Streptoavidin (manufactured by BioSource, Inc.) diluted to 1.000 folds with dilution buffer was added to the wells in an amount of 50 μl/well and incubated at 37° C. for 1 hour, followed by washing the wells with PBS/Tween 6 times.
As the model animal, 5-week-old male NC/Nga mice bred in SPF environment, presenting neither dermatitis-like feature nor hyperIgE syndrome were used. The animals were divided into each group composed of 10 animals. For the GLA-administered group, GLA ethyl ester (degree of purification of 95.98%: manufactured by Idemitsu Material Co., Ltd.) was administered by a stomach tube method in a dosage of 0.1 mg/individual once every other day. Administration of GLA was performed by using, olive oil containing little essential fatty acid which was added to 0.1 mg of GLA ethyl ester to make 50 μl. For the control group, 50 μl of olive oil alone was likewise administered.
The disease score of mice in these groups were calculated every week in the same manner as in Example 1 and total IgE amount in plasma was measured once every other week.

[1] = tested on: spleen cells of NC/Nga mice; conditions: BrdU 60-72 hours
Procedure: Here, the addition of GLA was performed by diluting it with ethanol to appropriate concentrations and making the final concentration of ethanol to be 0.1%.

[2] = tested on: spleen cells of NC/Nga mice
Text: In this example, the effect of GLA to inhibit IgE production in vitro was studied by an in vitro class switch induction system using spleen cells of the mice. First, spleen cells were collected from NC/Nga mice by the following method. An 8-week-old NC/Nga mouse bred in SPF environment, presenting neither dermatitis-like feature nor hyperIgE syndrome was sacrificed by dislocation fracture of the cervical vertebrae and the spleen was extracted in a sterile condition. The extracted spleen was placed in RPMI-1640 medium (about 3 ml) in a dish, and separated into individual cells with a sterilized pincette. The separated cells were placed in a 15-ml Falcon tube and the membrane of the spleen was removed. Then, the cells suspended in the medium were centrifuged at 1,500 rpm for 5 minutes to recover only the cells. Subsequently, to remove erythrocytes, the recovered cells were suspended in 10 ml of sterilized lysis buffer at 4° C. to cause hemolysis, followed by washing twice with sterilized PBS produced by Milli-Q at 4° C. to collect spleen cells. A portion of the obtained spleen cells was stained with Trypan Blue (Trypan Blue Stain 0.4%: manufactured by LIFE TECHNOLOGIES, INC.) and counted on a hemacytometer. Then, measurement of IgE amount in the culture supernatant in a class switch induction system was performed by the following procedure. Based on the number of cells counted by the above-mentioned method, the cells were inoculated on a plate (96-well cell culture microtest plate, with flat bottom, low evaporation type, made of polystyrene with a lid: manufactured by FALCON CO.) to a concentration of 2×10^5 cells/ml per well. The medium used here contained cytokine IL-4 (100 U/ml) and LPS (10 μg/ml) as stimulants for the IgE class switch induction. To observe the influences of GLA before, during, or after the stimulation for class switch, GLA was added to the media in various concentrations (0, 10, 20, 40, 60, 80, 120, 160 μg/ml) after 0 hour (at the start of culture), 48 hours, or 72 hours from the start. Here, the addition of GLA was performed by diluting it with ethanol to appropriate concentrations and making the final concentration of ethanol to be 0.1%. All the cultures were performed at 37° C. in a 5%-CO2 incubator and the cultured supernatants were recovered after 7 days (after 168 hours). The IgE amounts thereof were measured by a sandwich ELISA method.

[3] = oral administration of olive oil containing 0.1 mg GLA ethyl ester

| SMILES | disease score (summary of Example 2) (NC/Nga mice; [3]) | IgE amount (summary of Example 2) (IgE; [3]) | average disease score compared with control group (NC/Nga mice; GLA ethyl ester 0.1 mg/individual in olive oil, stomach tube, once every other day, vs olive oil control, week 9 or thereafter) | disease score compared with control group (NC/Nga mice; GLA ethyl ester 0.1 mg/individual in olive oil, stomach tube, once every other day, vs olive oil control, weeks 15 to 17) | disease score compared with control group (NC/Nga mice; GLA ethyl ester 50 mg/individual, stomach tube, once every other day from 5 weeks old, vs PBS control, week 11 and weeks 13 to 19) | increase of disease score with time (NC/Nga mice; GLA ethyl ester 50 mg/individual, stomach tube, once every other day, at week 11 or thereafter) | cell proliferation potency with increase of added GLA concentration ([1]; GLA 0-160 μg/ml added after 0 hour) | cell proliferation compared to no-GLA-added lot ([1]; GLA 40 μg/ml added after 0 hour) | amount of totally produced IgE compared to no-GLA-added lot ([2]; GLA 40 μg/ml added after 0 hour of culture) | degree of decrease in total IgE amount produced versus decrease in cell proliferation ([2]; GLA 20 to 60 μμg/ml added after 0 hour) | inhibition of IgE production, dependence on concentration ([2]; GLA added after 0 hour of culture, 0-160 μg/ml, supernatant after 7 days) | inhibition of IgE production (IgE amount in culture supernatant) ([2]; GLA added after 0 hour of culture, 120 μg/ml, supernatant after 7 days) | inhibition of IgE production (IgE amount in culture supernatant) ([2]; GLA added after 48 hours of culture, above 120 μg/ml) | inhibition of IgE production (IgE amount in culture supernatant) ([2]; GLA added after 48 hours of culture, up to 80 μg/ml) | inhibition of IgE production (IgE amount in culture supernatant) ([2]; GLA added after 72 hours of culture, at the added concentrations measured (10-160 μg/ml)) | inhibition of IgE production in vivo (IgE; 2 month-long oral administration to AD-suffering NC/Nga mice with hyperIgE syndrome) | increase of total IgE amount in plasma with time (IgE; GLA ethyl ester 0.1 mg/individual in olive oil, once every other day, at week 13 and thereafter) | total IgE amount in plasma compared with control group (IgE; GLA ethyl ester 0.1 mg/individual in olive oil, once every other day, vs olive oil control, week 13 to week 19) | total IgE amount in plasma compared with control group (IgE; GLA ethyl ester 50 mg/individual, once every other day, vs PBS control, each measurement period (weeks 5, 7, 9, 11)) | total IgE amount in plasma compared with control group (IgE; GLA ethyl ester 50 mg/individual, once every other day, vs PBS control, week 11) |
| --- | --- | --- | --- | --- | --- | --- | --- | --- | --- | --- | --- | --- | --- | --- | --- | --- | --- | --- | --- | --- |
| CCCCC/C=C\C/C=C\C/C=C\CCCCC(=O)OCC [GLA ethyl ester] | significantly low | significantly low | – | – | – | – | – | – | – | – | – | – | – | – | – | – | – | – | – | – |
| CCCCC/C=C\C/C=C\C/C=C\CCCCC(=O)O [GLA, γ-linolenic acid] | – | – | low average scores | significantly low scores | significant inhibition of the disease score | no significant increase was observed | a decrease in the cell proliferation potency was observed | did not substantially decrease | about one tenth | significantly greater | inhibits IgE production dose-dependently | complete inhibition of the IgE production | not complete but significant inhibition | no IgE inhibition was observed | no significant inhibition of IgE production was observed | no inhibition of IgE production | no significant increase was observed | significantly low values | low in total IgE amount | significantly low |
